Species on record: Rattus norvegicus
Test: DrugMatrix - Regimen: Daily Repeat
Type: toxicity, organism-based, Sprague-Dawley
Design: regimen Daily Repeat, gender Male, age 6-8 weeks
Settings: in vivo, sc, route subcutaneous, […]; for ABSOLUTE BASOPHIL / ABSOLUTE EOSINOPHIL / ABSOLUTE LYMPHOCYTE / ABSOLUTE MONOCYTE / ABSOLUTE SEGMENTED NEUTROPHIL / BASOPHIL / EOSINOPHIL / ERYTHROCYTE COUNT / HEMATOCRIT / HEMOGLOBIN / LEUKOCYTE COUNT / LYMPHOCYTE / MEAN CORPUSCULAR HEMOGLOBIN / MEAN CORPUSCULAR HEMOGLOBIN CONCENTRATION / MEAN CORPUSCULAR VOLUME / MONOCYTE / NEUTROPHIL / NUCLEATED RED BLOOD CELLS / PLATELET COUNT: tissue Blood; for ALANINE AMINOTRANSFERASE / ALBUMIN / ALKALINE PHOSPHATASE / ASPARTATE AMINOTRANSFERASE / BLOOD UREA NITROGEN / CARBON DIOXIDE / CHLORIDE / CHOLESTEROL / CREATINE PHOSPHOKINASE / CREATININE / GLUCOSE / LACTATE DEHYDROGENASE / LIPASE / PHOSPHORUS / POTASSIUM / SODIUM / TOTAL BILIRUBIN / TOTAL PROTEIN / URIC ACID: tissue Plasma
[1] = 14 mg/kg, 120 h, dose level Low, time 5 day
[2] = 140 mg/kg, 72 h, dose level High, time 3 day
[3] = 140 mg/kg, 120 h, dose level High, time 5 day

CCN(CC)CCOCCC1=CCC2CC1C2(C)C (centres undefined) [MYRTECAINE]
ABSOLUTE BASOPHIL [1]: 0 CELLS/uL
ABSOLUTE EOSINOPHIL [1]: 435.67 CELLS/uL
ABSOLUTE LYMPHOCYTE [1]: 16182.67 CELLS/uL
ABSOLUTE MONOCYTE [1]: 0 CELLS/uL
ABSOLUTE SEGMENTED NEUTROPHIL [1]: 2215 CELLS/uL
BASOPHIL [1]: 0%
EOSINOPHIL [1]: 2.33%
ERYTHROCYTE COUNT [1]: 6.14 x10E6/uL
HEMATOCRIT [1]: 39.17%
HEMOGLOBIN [1]: 15.53 G/DL
LEUKOCYTE COUNT [1]: 18.83 x10E3/uL
LYMPHOCYTE [1]: 86%
MEAN CORPUSCULAR HEMOGLOBIN [1]: 25.33 pg
MEAN CORPUSCULAR HEMOGLOBIN CONCENTRATION [1]: 39.7 G/DL
MEAN CORPUSCULAR VOLUME [1]: 63.8 fL
MONOCYTE [1]: 0%
NEUTROPHIL [1]: 11.67%
NUCLEATED RED BLOOD CELLS [1]: 0 /100WBC
PLATELET COUNT [1]: 1530.33 x10E3/uL
ALANINE AMINOTRANSFERASE [1]: 58 u/L
ALBUMIN [1]: 4.53 G/DL
ALKALINE PHOSPHATASE [1]: 470.67 u/L
ASPARTATE AMINOTRANSFERASE [1]: 83.67 u/L
BLOOD UREA NITROGEN [1]: 17.67 mg/dL
CARBON DIOXIDE [1]: 31.67 mmol/L
CHLORIDE [1]: 104 MEQ/L
CHOLESTEROL [1]: 76.67 mg/dL
CREATINE PHOSPHOKINASE [1]: 162.33 u/L
CREATININE [1]: 0.26 mg/dL
GLUCOSE [1]: 157.67 mg/dL
LACTATE DEHYDROGENASE [1]: 142 u/L
LIPASE [1]: 9.67 u/L
PHOSPHORUS [1]: 14.37 mg/dL
POTASSIUM [1]: 7.28 MEQ/L
SODIUM [1]: 151.27 MEQ/L
TOTAL BILIRUBIN [1]: 0.3 mg/dL
TOTAL PROTEIN [1]: 6.67 G/DL
URIC ACID [1]: 2.23 mg/dL
ABSOLUTE BASOPHIL [2]: 0 CELLS/uL
ABSOLUTE EOSINOPHIL [2]: 42 CELLS/uL
ABSOLUTE LYMPHOCYTE [2]: 11279.33 CELLS/uL
ABSOLUTE MONOCYTE [2]: 191.33 CELLS/uL
ABSOLUTE SEGMENTED NEUTROPHIL [2]: 620.67 CELLS/uL
BASOPHIL [2]: 0%
EOSINOPHIL [2]: 0.33%
ERYTHROCYTE COUNT [2]: 5.34 x10E6/uL
HEMATOCRIT [2]: 33.37%
HEMOGLOBIN [2]: 13.6 G/DL
LEUKOCYTE COUNT [2]: 12.13 x10E3/uL
LYMPHOCYTE [2]: 93%
MEAN CORPUSCULAR HEMOGLOBIN [2]: 25.53 pg
MEAN CORPUSCULAR HEMOGLOBIN CONCENTRATION [2]: 40.77 G/DL
MEAN CORPUSCULAR VOLUME [2]: 62.57 fL
MONOCYTE [2]: 1.67%
NEUTROPHIL [2]: 5%
NUCLEATED RED BLOOD CELLS [2]: 0 /100WBC
PLATELET COUNT [2]: 1370.67 x10E3/uL
ALANINE AMINOTRANSFERASE [2]: 61.67 u/L
ALBUMIN [2]: 3.67 G/DL
ALKALINE PHOSPHATASE [2]: 346 u/L
ASPARTATE AMINOTRANSFERASE [2]: 92 u/L
BLOOD UREA NITROGEN [2]: 13.33 mg/dL
CARBON DIOXIDE [2]: 30.33 mmol/L
CHLORIDE [2]: 100.33 MEQ/L
CHOLESTEROL [2]: 67 mg/dL
CREATINE PHOSPHOKINASE [2]: 447 u/L
CREATININE [2]: 0.17 mg/dL
GLUCOSE [2]: 155.33 mg/dL
LACTATE DEHYDROGENASE [2]: 247.33 u/L
LIPASE [2]: 8 u/L
PHOSPHORUS [2]: 13.73 mg/dL
POTASSIUM [2]: 7.09 MEQ/L
SODIUM [2]: 144.03 MEQ/L
TOTAL BILIRUBIN [2]: 0.2 mg/dL
TOTAL PROTEIN [2]: 5.6 G/DL
URIC ACID [2]: 2.03 mg/dL
ABSOLUTE BASOPHIL [3]: 0 CELLS/uL
ABSOLUTE EOSINOPHIL [3]: 174.67 CELLS/uL
ABSOLUTE LYMPHOCYTE [3]: 14614 CELLS/uL
ABSOLUTE MONOCYTE [3]: 386 CELLS/uL
ABSOLUTE SEGMENTED NEUTROPHIL [3]: 2992 CELLS/uL
BASOPHIL [3]: 0%
EOSINOPHIL [3]: 1%
ERYTHROCYTE COUNT [3]: 6.17 x10E6/uL
HEMATOCRIT [3]: 37.83%
HEMOGLOBIN [3]: 14.87 G/DL
LEUKOCYTE COUNT [3]: 18.17 x10E3/uL
LYMPHOCYTE [3]: 81.33%
MEAN CORPUSCULAR HEMOGLOBIN [3]: 24.07 pg
MEAN CORPUSCULAR HEMOGLOBIN CONCENTRATION [3]: 39.33 G/DL
MEAN CORPUSCULAR VOLUME [3]: 61.3 fL
MONOCYTE [3]: 2.33%
NEUTROPHIL [3]: 15.33%
NUCLEATED RED BLOOD CELLS [3]: 0 /100WBC
PLATELET COUNT [3]: 1631 x10E3/uL
ALANINE AMINOTRANSFERASE [3]: 84.67 u/L
ALBUMIN [3]: 3.97 G/DL
ALKALINE PHOSPHATASE [3]: 328 u/L
ASPARTATE AMINOTRANSFERASE [3]: 111.67 u/L
BLOOD UREA NITROGEN [3]: 16 mg/dL
CARBON DIOXIDE [3]: 26.33 mmol/L
CHLORIDE [3]: 104 MEQ/L
CHOLESTEROL [3]: 74.67 mg/dL
CREATINE PHOSPHOKINASE [3]: 356 u/L
CREATININE [3]: 0.2 mg/dL
GLUCOSE [3]: 164.67 mg/dL
LACTATE DEHYDROGENASE [3]: 370 u/L
LIPASE [3]: 12 u/L
PHOSPHORUS [3]: 13.97 mg/dL
POTASSIUM [3]: 6.94 MEQ/L
SODIUM [3]: 146.77 MEQ/L
TOTAL BILIRUBIN [3]: 0.17 mg/dL
TOTAL PROTEIN [3]: 5.97 G/DL
URIC ACID [3]: 2.6 mg/dL

Source: ChEMBL document CHEMBL3885881, “DrugMatrix”
